Experimental data taken from patent publication US20240002388A1, “PYRIMIDINONE COMPOUNDS AND USES THEREOF” (HUTCHISON MEDIPHARMA LIMITED, priority 2020, published 2024).

How the values were obtained:
[1] = target: RIPK1 recombination protein (Homo sapiens (Human), UniProt Q13546); assay: RIPK1 kinase activity assay (ADP-Glo); assay type: biochemical; details: for IC50: RIPK1 kinase activity, ADP-Glo, 10 μM ATP
Description: RIPK1 recombination protein: synthesized by Shanghai Medicilon Inc. under the commission by Hutchison MediPharma Limited (50 g of cell pellet was resuspended in 250 mL of lysis buffer (50 mM Tris, pH 7.5, 250 mM NaCl, 1 mM DTT, protease inhibitor 1:50), the cells were ultrasonically lysed using a sonicator (the power set to 4) on ice for 3×30 minutes; then centrifugation was carried out at 4° C., at 15,000 g for 30 minutes to clarify the suspension, the soluble pellet was resuspended into 10 mL of glutathione agarose, and incubated at 4° C. for 2 hours; then the beads were loaded into the column and washed with lysis buffer (no protease inhibitors) to baseline, and eluted with 20 mM of reduced glutathione (50 mM Tris, pH 8). The fractions identified by SDS-PAGE as containing the protein of interest were collected (10 mL of total volume), concentrated to about 5 mL and loaded into 300 mL superdex75 column (GE Healthcare) equilibrated with buffer (50 mM Tris, pH 7.5, 150 mM NaCl, 1 mM DTT, 10% glycerol, pH 7.5). RIP1 protein was eluted as a dimer from the superdex75 column. The protein concentration was determined by the Bradford assay using BSA as the standard. The yield was 12.5 mg at 0.63 mg/mL. The protein was aliquoted and frozen at −80° C. for later use.
ADP-Glo Kinase kit can be used to measure ADP level in kinase activity assay so as to distinguish the inhibitory effects of different compounds on RIPK1 kinase activity. The ADP-Glo assay was usually divided into three steps. Firstly, the kinase converted ATP to ADP and phosphorylated the substrate at the same time; secondly, ATP digestion reagent was added to degrade all ATP in the reaction system; finally, a detection reagent was added to reduce ADP to ATP, and energy from ATP was transferred to […] which thus emitting a chemical luminescence that can be detected. Assay procedure can refer to manufacture's technical manual.
(2) Reagent Preparation: • 1.33× kinase buffer: 5× kinase buffer stock (250 mM of NaCl, 150 mM of MgCl2, 2.5 mg/ml BSA (bovine serum albumin), 0.1% CHAPS (3-[(3-cholamidopropyl)-dimethyl-ammonio]-1-propane sulfonate), and 5 mM of dithiothreitol) was diluted with water to 1.33× kinase buffer; • RIPK1 enzyme solution: the kinase was dissolved in 1.33× kinase buffer to make 40 nM as the final working concentration; • ATP solution: 10 mM ATP stock solution in water was dissolved in 1.33× kinase buffer to make 10 μM as the final working concentration; • 4× compound preparation: the compound was diluted in a 3-fold gradient, and finally 4% DMSO aqueous solution containing different concentrations of the compound was obtained. The final concentrations of the test compound were 10, 3.33, 1.11, 0.37, 0.12, 0.04, 0.014, and 0.005 μM.
The assay set up two control groups, one was 100% inhibition group (no enzyme treatment), another was 0% inhibition group (no inhibitor treatment), each control group contained 8 replicate wells. 2.5 μl of serially diluted compound was added to each well of a 384-well plate, with double replicate wells, and 4% DMSO solution was added to control wells. Then 5 μl of RIPK1 enzyme solution was added to each well except 100% inhibition control, 5 ul of buffer was added to 100% inhibition control, after that, 2.5 μl of ATP solution was added to all wells, the plate was vibrated at 1000 rpm for 30 seconds to perform transient centrifuge; finally the 384-well assay plate was put in the shaking incubator, and incubated at room temperature for 3 hours. After the enzymatic reaction was completed, 5 μl of ATP depletion reagent was added to each well, the mixture was centrifuged transiently, then the 384-well assay plate was put in the shaking incubator, and incubated at room temperature for 1 hour. 5 μl of ADP detection reagent was added to each well, and the mixture was centrifuged transiently, and incubated at room temperature for 0.5 hour. […]

[2] = test system: U937 cell line (human histiocytic lymphoma cell line); assay: U937 cell viability assay (TNF-α + Z-VAD-FMK induced necroptosis); assay type: cell-based; details: Homo sapiens, U-937; U937 cells, hTNF-α 0.1 μg/mL + Z-VAD-FMK 50 μM, 20 hours, CellTiter-Glo
Description: U937 cell line (human histiocytic lymphoma cell line): purchased from ATCC (American Type Culture Collection) Cell Bank, cultured in a 5% CO2, 37° C. incubator, and RPMI 1640 medium which contains L-glutamine, 1.5 g/L sodium bicarbonate, 2.383 g/L HEPES solution, 0.11 g/L sodium pyruvate and 4.5 g/L glucose, plus 10% fetal bovine serum (FBS) was used. • RPMI 1640 medium: GIBCO, Cat #A10491-01; • Fetal bovine serum (FBS): GIBCO, Cat #10099-141C; • Dimethyl sulfoxide (DMSO): Sigma, Cat #D2650; • Recombinant Human TNF-alpha Protein (hTNF-α): R&D system, Cat #210-TA-100; • Pan-Caspase inhibitor (Z-VAD-FMK): Selleckchem, Cat #S7023; • CellTiter-Glo 2.0 Cell Viability Assay kit: Promega, Cat #G9242; • Microwell plate reader: Envision, Perkin Elmer; • 96-well plate: Corning, Cat #3917.
The U937 cells at the logarithmic phase were taken out, centrifuged to remove the medium, washed with PRMI 1640 medium containing 1% FBS, and diluted with 1% FBS-containing RPMI 1640 medium to 2.5×10^5 cells/ml, inoculated at 70 μL/well into a 96-well plate, i.e., 1.75×10^4 cells/well. The plate was cultured in a 5% CO2, 37° C. cell incubator. After incubating for 1 hour, the test compound was diluted to the corresponding concentrations using DMSO with 3-fold serial dilution, then the corresponding concentration of DMSO diluted solution was diluted into 1% FBS-containing RPMI 1640 medium, and 10 μL/well of the diluted test compound with different concentrations (final concentration of test compound was 1.0, 0.333, 0.111, 0.037, 0.012, 0.004, 0.0014 and 0.0005 μM, while final concentration of DMSO was 0.3%) or 10 μL/well control solution (3% DMSO) were added to the cell culture system respectively, with the total volume being 80 μL/well; Then 10 μL of Z-VAD-FMK solution diluted with 1% FBS-containing RPMI 1640 medium (final concentration of 50 μM) or 10 μL of control solution (2.5% DMSO) was added to each well, with the total volume being 90 μL/well. The plate was incubated in a 5% CO2, 37° C. cell culture incubator for 1 hour.
After being cultured for 1 hour, 10 μL of human recombinant TNF-α protein diluted with 1% FBS-containing RPMI 1640 medium (final concentration of 0.1 μg/mL) or 10 μL/well control solution (1% FBS-containing RPMI 1640 medium) was added to each well. The plate was incubated in a 5% CO2, 37° C. cell culture incubator for 20 hours.
The cell culture plate was taken out from the incubator, and left to stand at room temperature for 30 minutes. Meanwhile, CellTiter-Glo viability assay kit was put from freezer to room temperature, and 50 μL of CellTiter-Glo reagent was added to all wells, the plate was shaken for 1 minutes, protected from light at room temperature for 10 minutes then read the plate on Envision to get the luminescence signal.
The 96-well plate in the dark was taken out, and the chemiluminescence was determined using the Envision microwell plate reader as the signal value of each well.
The mean signal value of the wells of the mixed solution of recombinant human TNF-alpha protein (final concentration of 0.1 μg/mL) and Pan-Caspase inhibitor (final concentration of 50 μM) was used as the lower value, and the mean signal value of the wells without stimulation was used as the upper value. According to the signal value of each well, the inhibition rate of each concentration of every compound was calculated, and the IC50 value of compound was obtained by Model 205 in XL-Fit 5.3 software (ID Business Solutions Limited).
Inhibition rate %=[(Luminescence readout of treated compound−Luminescence readout of positive control)/(Luminescence readout of negative control−Luminescence readout of positive control)]×100%, wherein

Chain of RIPK1 recombination protein (Q13546 other isoform, or with tags, fused parts or gaps): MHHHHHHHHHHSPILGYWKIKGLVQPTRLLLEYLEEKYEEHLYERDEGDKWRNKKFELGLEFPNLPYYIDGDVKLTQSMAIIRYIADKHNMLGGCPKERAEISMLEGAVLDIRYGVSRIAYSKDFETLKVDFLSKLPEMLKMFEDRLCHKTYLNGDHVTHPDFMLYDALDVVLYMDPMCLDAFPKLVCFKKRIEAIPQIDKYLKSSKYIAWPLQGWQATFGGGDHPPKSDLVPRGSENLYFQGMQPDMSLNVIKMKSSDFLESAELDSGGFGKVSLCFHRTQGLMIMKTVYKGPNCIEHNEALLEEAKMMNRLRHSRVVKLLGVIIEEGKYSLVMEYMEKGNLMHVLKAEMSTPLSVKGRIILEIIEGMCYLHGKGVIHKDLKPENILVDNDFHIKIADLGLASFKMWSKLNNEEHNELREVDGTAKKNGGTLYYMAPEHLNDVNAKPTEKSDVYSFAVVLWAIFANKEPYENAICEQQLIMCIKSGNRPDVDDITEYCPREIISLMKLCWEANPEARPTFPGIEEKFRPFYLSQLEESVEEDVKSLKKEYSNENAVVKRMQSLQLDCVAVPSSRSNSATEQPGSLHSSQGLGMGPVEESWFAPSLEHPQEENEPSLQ

SMILES | IC50 [1] [nM] | inhibition at 3 µM ([1]; 3 μM compound, read-out: Inhibition rate at the compound concentration of 3 μM) [%] | IC50 [2] [nM]
Cn1c(N)ncc(-c2ccc(C3(NC(=O)c4nnc(Cc5ccccc5)[nH]4)CC3)cc2)c1=O [Compound 7] | 39 | – | 68
Cc1cc(C2(NC(=O)c3ncc4cnn(C(C)C)c4n3)CC2)ccc1-c1cncn(C)c1=O [Compound 27] | 46 | – | 102
C[C@@H](c1ccccc1)n1cnc(C(=O)NC2(c3ccc(-c4cncn(C)c4=O)cc3)CC2)n1 [Compound 56, (S)—N-(1-(4-(1-methyl-6-oxo-1,6-dihydropyrimidin-5-yl)phenyl)cyclopropyl)-1-(1-phenylethyl)-1H-1,2,4-triazole-3-carboxamide] | 189 | – | –
C[C@H](c1ccccc1)c1nnc(C(=O)NC2(c3ccc(-c4cncn(C)c4=O)cc3)CC2)[nH]1 [Compound 57, (R)—N-(1-(4-(1-methyl-6-oxo-1,6-dihydropyrimidin-5-yl)phenyl)cyclopropyl)-5-(1-phenylethyl)-4H-1,2,4-triazole-3-carboxamide] | 531 | – | –
C[C@@H](c1ccccc1)c1nnc(C(=O)NC2(c3ccc(-c4cncn(C)c4=O)cc3)CC2)[nH]1 [Compound 58, (S)—N-(1-(4-(1-methyl-6-oxo-1,6-dihydropyrimidin-5-yl)phenyl)cyclopropyl)-5-(1-phenylethyl)-4H-1,2,4-triazole-3-carboxamide] | 139 | – | –

The next lines start with results.

IC50 [1] [nM] | inhibition at 3 µM ([1]; 3 μM compound, read-out: Inhibition rate at the compound concentration of 3 μM) [%] | SMILES | IC50 [2] [nM]
89 | – | CC(C)n1ncc2cnc(C(=O)NC3(c4ccc(-c5cncn(C)c5=O)c(C(F)(F)F)c4)CC3)nc21 [Compound 24] | 161
432 | – | Cc1ncc(-c2ccc(C3(NC(=O)c4ncc5cnn(C(C)C)c5n4)CC3)cc2)c(=O)n1C [Compound 31] | –
– | 82.5 | CC(C)n1ncc2cnc(C(=O)NC3(c4ccc(-c5cncn(C)c5=O)cc4Cl)CC3)nc21 [Compound 32] | –
53 | – | Cn1cncc(-c2ccc(C3(NC(=O)c4n[nH]c(Cc5ccccc5)n4)CC3)c(F)c2)c1=O [Compound 48] | 39
121 | – | Cn1cncc(-c2ccc(C3(NC(=O)c4nc5n(n4)[C@H](c4ccccc4)CC5)CC3)cc2)c1=O [Compound 53, (S)—N-(1-(4-(1-methyl-6-oxo-1,6-dihydropyrimidin-5-yl)phenyl)cyclopropyl)-5-phenyl-6,7-dihydro-5H-pyrrolo[1,2-b][1,2,4]triazole-2-carboxamide] | 554
